Laboratory results published in US10028956B2, “Methods of treating various cancers using an AXL/cMET inhibitor in combination with other agents” (Ignyta, Inc., priority 2013, dated 2018).
Marks after values point to notes of the source that are not given here.

Assays:
[1] = test system: GTL-16 gastric carcinoma xenografts; experiment: Anti-tumor efficacy in GTL-16 gastric carcinoma xenografts; format: in vivo, mice; settings: 10 and 30 mg/kg oral qd
From the text: The human gastric cancer cell line, GTL-16 was purchased from ATCC (American Tissue Culture Collection, Manassas, Va.) and cultured in DMEM medium with 10% fetal bovine serum (FBS, Cat# SH3007003, Hyclone Laboratory Inc, Logan, Utah). Female Nu/Nu mice (6-8 weeks, Charles River Laboratory, Wilmington, Mass.) were maintained 5/cage in microisolator units on a standard laboratory diet (Teklad Labchow, Harlan Teklad, Madison, Wis.). Animals were housed under humidity- and temperature-controlled conditions and the light/dark cycle was set at 12-hour intervals. Mice were quarantined at least 1 week prior to experimental manipulation. […] The mice were then monitored daily. […] The length (L) and width (W) of each tumor was measured with a vernier caliper and the mouse body weight was determined every 2-3 days. The tumor volumes were then calculated with the formula of 0.5236*L*W*(L+W)/2. […] Plasma and tumor samples were obtained at 2 hours post final dose at each dose level, and the compound levels in plasma and tumor lysates were measured by LC-MS/MS. The TGI values were calculated at the end of study by comparing the tumor volumes (TV) of each CEP-40783-treatment group with those of vehicle-treated group with the following formula: 1-(the last day TV of compound-treated group/the last day TV of vehicle-treated group).

[2] = test system: CTG-0157 primary NSCLC human TumorGraft; experiment: NSCLC TumorGraft model CTG-0157; format: in vivo, mice; settings: CTG-0157, 14 days
Procedure: Methods (for the experiments shown in FIGS. 10 and 11) • Female immunocompromised nu/nu mice (Harlan) between 6-9 weeks of age were housed on irradiated papertwist-enriched ⅛″ corncob bedding (Sheperd) in individual HEPA ventilated cages (Innocage® IVC, Innovive USA) on a 12-hour light-dark cycle at 68-74° F. (20-23° C.) and 30-70% humidity. Animals were fed water ad libitum (reverse osmosis, 2 ppm Cl2) and an irradiated Test rodent diet (Teklad 2919) consisting of 19% protein, 9% fat, and 4% fiber. • Tumor Models: Champions TumorGraft models of NSCLC are owned by Champions Oncology. In this study, animals were implanted unilaterally on the right flank with tumor fragments harvested from host animals. […] Erlotinib (manufacturer: OSI Pharmaceuticals; National Drug Code: 50242-062-01; Lot #: US0002) was formulated using 100% PEG-400 as the vehicle according to manufacturer's specifications.
Efficacy measurements: Beginning Day 0, tumor dimensions were measured twice weekly by digital caliper (Fowler Ultra-Cal IV) and data including individual and mean estimated tumor volumes (Mean TV±SEM) were recorded for each group; tumor volume was calculated using the formula TV=width^2×length×0.52. At study completion, percent tumor growth inhibition (% TGI) values were calculated and reported for each treatment group (T) versus control (C) using initial (i) and final (f) tumor measurements by the formula: % TGI=1−Tf−Ti/Cf−C; single agent or combination therapies resulting in a TGI>50 at study completion are considered active in the tested model at the evaluated treatment regimen according to NCI guidelines. […] If the PR persisted until study completion, percent tumor regression (% TR) was determined using the formula: % TR=1−Tf/Ti×100; a mean value was calculated if multiple PR mice occurred in one group. […] Statistical differences in tumor volume were determined using a two-tailed One-Way Analysis of Variance (ANOVA) followed by the Dunett's multiple comparisons test comparing treated groups with control and combinations with standard agent alone when possible. […]

AXL = target: T1, AXL (Homo sapiens, UniProt P30530); experiment: Cellular AXL inhibition in AXL-transfected 293GT cells; format: cell-based
T1 sequence (P30530 26-894): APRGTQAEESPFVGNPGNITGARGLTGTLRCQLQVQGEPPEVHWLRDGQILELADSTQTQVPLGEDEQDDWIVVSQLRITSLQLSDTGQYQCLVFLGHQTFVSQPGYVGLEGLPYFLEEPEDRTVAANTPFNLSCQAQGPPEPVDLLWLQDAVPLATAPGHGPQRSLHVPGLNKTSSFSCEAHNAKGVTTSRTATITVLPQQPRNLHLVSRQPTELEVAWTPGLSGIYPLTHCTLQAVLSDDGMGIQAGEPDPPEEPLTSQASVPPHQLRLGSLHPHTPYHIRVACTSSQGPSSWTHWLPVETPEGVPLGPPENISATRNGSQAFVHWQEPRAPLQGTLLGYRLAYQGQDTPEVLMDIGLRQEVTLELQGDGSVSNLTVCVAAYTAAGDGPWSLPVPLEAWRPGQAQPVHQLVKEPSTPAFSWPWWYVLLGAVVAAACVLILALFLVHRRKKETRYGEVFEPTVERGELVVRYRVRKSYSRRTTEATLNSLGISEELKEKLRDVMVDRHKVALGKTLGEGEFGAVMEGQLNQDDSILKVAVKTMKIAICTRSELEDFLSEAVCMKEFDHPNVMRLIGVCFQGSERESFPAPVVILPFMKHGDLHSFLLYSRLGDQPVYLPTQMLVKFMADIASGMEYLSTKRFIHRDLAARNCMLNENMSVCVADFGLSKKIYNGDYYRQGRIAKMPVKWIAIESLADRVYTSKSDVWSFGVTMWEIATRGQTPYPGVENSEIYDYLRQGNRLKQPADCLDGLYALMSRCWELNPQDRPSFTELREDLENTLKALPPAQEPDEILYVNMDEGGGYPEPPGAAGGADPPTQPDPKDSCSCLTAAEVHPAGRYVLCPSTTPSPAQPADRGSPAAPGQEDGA

c-Met = c-Met (Homo sapiens, UniProt P08581); experiment: Cellular c-Met inhibition in GTL-16 cells; format: cell-based; design: endogenous in cells; host or cells: GTL-16 human gastric carcinoma cells
Sequence of c-Met (P08581 25-1390): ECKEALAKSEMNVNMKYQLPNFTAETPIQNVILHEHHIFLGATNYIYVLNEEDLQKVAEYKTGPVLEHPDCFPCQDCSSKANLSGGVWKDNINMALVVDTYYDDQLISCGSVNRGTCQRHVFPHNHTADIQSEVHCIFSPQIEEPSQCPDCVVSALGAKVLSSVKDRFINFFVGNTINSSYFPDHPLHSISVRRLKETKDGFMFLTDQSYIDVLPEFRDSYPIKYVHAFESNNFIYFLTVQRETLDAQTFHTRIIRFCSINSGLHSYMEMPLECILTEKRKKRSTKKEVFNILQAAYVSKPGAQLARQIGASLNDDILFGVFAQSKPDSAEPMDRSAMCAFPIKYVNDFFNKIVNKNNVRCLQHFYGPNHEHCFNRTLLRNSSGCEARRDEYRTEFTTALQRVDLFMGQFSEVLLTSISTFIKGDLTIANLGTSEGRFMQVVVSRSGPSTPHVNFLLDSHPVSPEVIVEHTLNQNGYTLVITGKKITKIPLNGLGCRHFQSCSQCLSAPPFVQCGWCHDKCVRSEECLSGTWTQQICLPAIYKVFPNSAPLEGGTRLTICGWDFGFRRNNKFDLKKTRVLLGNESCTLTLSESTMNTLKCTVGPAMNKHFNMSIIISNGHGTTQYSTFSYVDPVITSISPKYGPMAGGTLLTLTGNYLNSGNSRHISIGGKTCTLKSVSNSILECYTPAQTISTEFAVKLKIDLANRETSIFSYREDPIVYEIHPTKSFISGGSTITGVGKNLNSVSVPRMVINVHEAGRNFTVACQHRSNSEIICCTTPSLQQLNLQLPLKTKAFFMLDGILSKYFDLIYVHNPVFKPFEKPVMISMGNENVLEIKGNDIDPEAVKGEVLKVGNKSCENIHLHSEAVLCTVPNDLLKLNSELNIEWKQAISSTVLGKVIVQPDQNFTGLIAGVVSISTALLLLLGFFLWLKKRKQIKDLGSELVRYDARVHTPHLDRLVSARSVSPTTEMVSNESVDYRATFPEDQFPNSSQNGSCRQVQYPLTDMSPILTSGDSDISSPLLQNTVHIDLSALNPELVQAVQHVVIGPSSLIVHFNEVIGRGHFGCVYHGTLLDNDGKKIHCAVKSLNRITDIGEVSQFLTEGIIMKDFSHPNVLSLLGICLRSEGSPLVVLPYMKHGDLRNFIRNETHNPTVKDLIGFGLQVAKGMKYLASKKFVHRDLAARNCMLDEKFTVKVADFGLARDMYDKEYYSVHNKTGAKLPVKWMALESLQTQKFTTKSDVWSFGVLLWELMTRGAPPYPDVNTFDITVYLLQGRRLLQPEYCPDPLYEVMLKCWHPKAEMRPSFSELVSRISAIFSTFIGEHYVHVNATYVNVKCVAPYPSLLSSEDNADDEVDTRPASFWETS

COc1cc2nccc(Oc3ccc(NC(=O)c4cn(C(C)C)c(=O)n(-c5ccc(F)cc5)c4=O)cc3F)c2cc1OC [CEP-40783, 3-(4-Fluorophenyl)-1-isopropyl-2,4-dioxo-1,2,3,4-tetrahydropyrimidine-5-carboxylic acid [4-(6,7-dimethoxyquinolin-4-yloxy)-3-fluorophenyl]-amide]
anti-tumor efficacy (tumor volume) [1]: tumor stasis and regressions | % Tumor Growth Inhibition ([2]; 10 mg/kg po/qd): 3% | % Tumor Growth Inhibition ([2]; 30 mg/kg po/qd): 85%*† | IC50 (AXL): 0.26 nM | IC50 (c-Met): 6 nM
